According to US20060247320A1, “Compounds for inhibiting KSP kinesin activity” (priority 2005, published 2006):

target: T1, KSP motor domain (Homo sapiens, UniProt P52732); experiment: biochemical; details: IC50 (nM), KSP inhibitory activity, end-point assay; class symbols (Table 1)
T1 sequence (P52732 18-359 limits assumed): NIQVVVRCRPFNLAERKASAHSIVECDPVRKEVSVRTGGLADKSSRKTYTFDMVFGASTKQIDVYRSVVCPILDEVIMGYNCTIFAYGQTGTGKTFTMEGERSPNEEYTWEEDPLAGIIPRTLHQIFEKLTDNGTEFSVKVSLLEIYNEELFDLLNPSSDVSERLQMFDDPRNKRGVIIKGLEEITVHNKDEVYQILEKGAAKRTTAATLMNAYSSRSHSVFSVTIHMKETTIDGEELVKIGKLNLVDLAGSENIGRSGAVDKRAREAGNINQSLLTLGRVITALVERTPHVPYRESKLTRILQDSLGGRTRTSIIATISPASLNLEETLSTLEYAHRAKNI

Compared with CCOC(=O)c1cc2cc3c(nc2s1)CCC([Si](C)(C)C)C3 (stereo not drawn) [Example 188, Ethyl 5,6,7,8-Tetrahydro-6-(Trimethylsilyl)thieno[2,3b]quinoline-2-Carboxylate], C[Si](C)(C)C1CCc2nc3sc(C(=O)NCCN)cc3cc2C1 (stereo not drawn) [Example 191, N-(2-Aminoethyl) 5,6,7,8-Tetrahydro-6-(Trimethylsilyl)thieno[2,3-b]quinoline-2-Carboxamide] is lower in IC50: greater than 10000 nM for the first, less than 100 nM for the second. The second is the more potent here.

same assay, conditions: IC50 (nM), exact IC50 values, end-point assay (Table 2)

In the case of C[Si](C)(C)C1CCc2nc3sc(C(=O)NCCN)cc3cc2C1 (stereo not drawn) [Example 191, N-(2-Aminoethyl) 5,6,7,8-Tetrahydro-6-(Trimethylsilyl)thieno[2,3-b]quinoline-2-Carboxamide], the IC50 is reported as 10 nM.

same assay, conditions: KSP inhibitory activity, end-point assay; class symbols (Table 1)

With C[C@@H](CO)NC(=O)c1cc2cc3c(nc2s1)CCC([Si](C)(C)C)C3 (stereo partly drawn) [Example 190, 5,6,7,8-Tetrahydro-N-(2-hydroxy-1(S)-methylethyl)-6-(Trimethylsilyl)thieno[2,3-b]quinoline-2-Carboxamide] the “IC50 (nM)” value was “B/C”.

same assay, conditions: KSP inhibitory activity, end-point assay; class symbols (Table 1); read-out: IC50

CC(C)(C)C1CCc2nc3sc(C(=O)NCCN)c(N)c3cc2C1 (stereo not drawn) [Example 193, 3-Amino-N-(2-Aminoethyl)-6-(1,1-Dimethylethyl)-5,6,7,8-Tetrahydrothieno[2,3-b]quinoline-2-Carboxamide] and CC(C)(C)C1CCc2nc3sc(C(=O)NCCN4CCCC4)cc3cc2C1 (stereo not drawn) [Example 199, 6-(1,1-Dimethylethyl)-5,6,7,8-tetrahydro-N-[2-(1-Pyrrolidinyl)ethyl]thieno[2,3-b]quinoline-2-Carboxamide] fall in the same range of IC50: 1000 to 10000 nM for the first, 1000 to 10000 nM for the second.

First: CC(C)(C)C1CCc2nc3sc(C(=O)NCCN4CCOCC4)cc3cc2C1 (stereo not drawn) [Example 194, 6-(1,1-Dimethylethyl)-5,7,8-Tetrahydro-N-[2-(4-Morpholinyl)ethyl]thieno[2,3-b]quinoline-2-Carboxamide]
Second: CC(C)(C)C1CCc2nc3sc(C(=O)NCCN4CCNCC4)cc3cc2C1 (stereo not drawn) [Example 197, 6-(1,1-Dimethylethyl)-5,6,7,8-Tetrahydro-N-[2-(1-Piperazinyl)ethyl]thieno[2,3-b]quinoline-2-Carboxamide]
The IC50 of the first is higher: 1000 to 10000 nM for the first, 100 to 1000 nM for the second.

CC(C)(C)C1CCc2nc3sc(C(=O)NCC4CCNCC4)cc3cc2C1 (stereo not drawn) [Example 195, 6-(1,1-Dimethylethyl)-5,6,7,8-Tetrahydro-N-(4-Piperidinylmethyl)thieno[2,3-b]quinoline-2-Carboxamide] and CC(C)(C)C1CCc2nc3sc(C(=O)NCCN4CCCCC4)cc3cc2C1 (stereo not drawn) [Example 198, 6-(1,1-Dimethylethyl)-5,6,7,8-Tetrahydro-N-[2-(1-Piperidinyl)ethyl]thieno[2,3-b]quinoline-2-Carboxamide] fall in the same range of IC50: 1000 to 10000 nM for the first, 1000 to 10000 nM for the second.

CC(C)(C)C1CCc2nc3sc(C(=O)NCCCN4CCCC4=O)cc3cc2C1 (stereo not drawn) [Example 196, 6-(1,1-Dimethylethyl)-5,6,7,8-Tetrahydro-N-[3-(2-oxo-1-Pyrrolidinyl)propyl]thieno[2,3-b]quinoline-2-Carboxamide] and CC(C)(C)C1CCc2nc3sc(C(=O)NN4CCOCC4)cc3cc2C1 (stereo not drawn) [Example 200, 6-(1,1-Dimethylethyl)-5,6,7,8-Tetrahydro-N-(4-Morpholinyl)thieno[2,3-b]quinoline-2-Carboxamide] fall in the same range of IC50: 1000 to 10000 nM for the first, 1000 to 10000 nM for the second.

First: CC1Cc2nc3sc(C#N)c(N)c3cc2CC1C(C)(C)C (stereo not drawn) [Example 202, 3-Amino-6-tert-butyl-7-methyl-5,6,7,8-tetrahydrothieno[2,3-b]quinoline-2-carbonitrile]
Second: CCC1Cc2nc3sc(C#N)c(N)c3cc2CC1C(C)(C)C (stereo not drawn) [Example 205, 3-Amino-6-tert-butyl-7-ethyl-5,6,7,8-tetrahydrothieno[2,3-b]quinoline-2-carbonitrile]
The IC50 of the first is lower: 100 to 1000 nM for the first, 1000 to 10000 nM for the second. The first is the more potent here.

Compared with CC1Cc2nc3sc(C#N)cc3cc2CC1C(C)(C)C (stereo not drawn) [Example 203, 6-tert-Butyl-7-methyl-5,6,7,8-tetrahydro-thieno[2,3,-b]quinoline-2-carbonitrile], CCC1Cc2nc3sc(C#N)cc3cc2CC1C(C)(C)C (stereo not drawn) [Example 206, 6-tert-Butyl-7-ethyl-5,6,7,8-tetrahydro-thieno[2,3,-b]quinoline-2-carbonitrile] is higher in IC50: 100 to 1000 nM for the first, 1000 to 10000 nM for the second.

CC1Cc2nc3sc(C(N)=O)cc3cc2CC1C(C)(C)C (stereo not drawn) [Example 204, 6-tert-Butyl-7-methyl-5,6,7,8-tetrahydro-thieno[2,3,-b]quinoline-2-carboxylic acid amide] and CC(C)C1Cc2cc3cc(C(N)=O)sc3nc2CC1C (stereo not drawn) [Example 209, 6-isopropyl-7-methyl-5,6,7,8-tetrahydro-thieno[2,3,-b]quinoline-2-carboxylic acid amide] fall in the same range of IC50: 100 to 1000 nM for the first, 100 to 1000 nM for the second.

Compared with CC(C)C1Cc2cc3c(N)c(C#N)sc3nc2CC1C (stereo not drawn) [Example 207, 3-Amino-6-isopropyl-7-methyl-5,6,7,8-tetrahydro-thieno[2,3-b]quinoline-2-carbonitrile], CC(C)C1Cc2cc3cc(C#N)sc3nc2CC1C (stereo not drawn) [Example 208, 6-isopropyl-7-methyl-5,6,7,8-tetrahydro-thieno[2,3,-b]quinoline-2-carbonitrile] is lower in IC50: greater than 10000 nM for the first, 100 to 1000 nM for the second. The second is the more potent here.

Compared with CC(C)(C)C1CCc2nc3sc(C(=O)N[C@H](CN)c4cccc(Br)c4)cc3cc2C1 (stereo partly drawn) [Example 210, 6-tert-butyl-5,6,7,8-tetrahydro-thieno[2,3-b]quinoline-2-carboxylic acid [(1S)-2-amino-1-(3-bromo-phenyl)-ethyl]-amide], CC(C)(C)C1CCc2nc3sc(C(=O)N[C@H](CN)c4cccc(N)c4)cc3cc2C1 (stereo partly drawn) [Example 217] is lower in IC50: 100 to 1000 nM for the first, less than 100 nM for the second. The second is the more potent here.

CC(C)(C)C1CCc2nc3sc(C(=O)N[C@H](CN)c4cccc(-c5ccccc5)c4)cc3cc2C1 (stereo partly drawn) [Example 211, 6-tert-butyl-5,6,7,8-tetrahydro-thieno[2,3-b]quinoline-2-carboxylic acid [(1S)-2-amino-1-biphenyl-3-yl-ethyl)-amide] and CC(C)(C)C1CCc2nc3sc(C(=O)N[C@H](CN)c4cccc(-c5ccncc5)c4)cc3cc2C1 (stereo partly drawn) [Example 212, 6-tert-butyl-5,6,7,8-tetrahydro-thieno[2,3-b]quinoline-2-carboxylic acid [(1S)-2-amino-1-(3-pyridin-4-yl-phenyl)-ethyl]-amide] fall in the same range of IC50: 100 to 1000 nM for the first, 100 to 1000 nM for the second.

First: CC(C)(C)C1CCc2nc3sc(C(=O)N[C@H](CN)c4cccc(-c5cccc6cccnc56)c4)cc3cc2C1 (stereo partly drawn) [Example 213, 6-tert-butyl-5,6,7,8-tetrahydro-thieno[2,3-b]quinoline-2-carboxylic acid [(1S)-2-amino-1-(3-quinolin-8-yl-phenyl)-ethyl]-amide]
Second: Cc1cccc([C@@H](CN)NC(=O)c2cc3cc4c(nc3s2)CCC(C(C)(C)C)C4)c1 (stereo partly drawn) [Example 220]
The IC50 of the first is higher: 100 to 1000 nM for the first, less than 100 nM for the second. The second is the more potent here.

CC(C)(C)C1CCc2nc3sc(C(=O)N[C@H](CN)c4cccc([N+](=O)[O-])c4)cc3cc2C1 (stereo partly drawn) [Example 214] and CC(C)(C)C1CCc2nc3sc(C(=O)N[C@H](CN)c4ccc([N+](=O)[O-])cc4)cc3cc2C1 (stereo partly drawn) [Example 215] cannot be ordered by IC50: less than 100 nM for the first, less than 100 nM for the second.

CC(C)(C)C1CCc2nc3sc(C(=O)N[C@H](CN)c4ccc(C#N)cc4)cc3cc2C1 (stereo partly drawn) [Example 216] and CC(C)(C)C1CCc2nc3sc(C(=O)N[C@H](CN)c4ccc(N)cc4)cc3cc2C1 (stereo partly drawn) [Example 218] cannot be ordered by IC50: less than 100 nM for the first, less than 100 nM for the second.

COc1ccc([C@@H](CN)NC(=O)c2cc3cc4c(nc3s2)CCC(C(C)(C)C)C4)cc1 (stereo partly drawn) [Example 219] and Cc1ccc([C@@H](CN)NC(=O)c2cc3cc4c(nc3s2)CCC(C(C)(C)C)C4)cc1 (stereo partly drawn) [Example 221] cannot be ordered by IC50: less than 100 nM for the first, less than 100 nM for the second.

CC(=O)Nc1cccc(C(CN)NC(=O)c2cc3cc4c(nc3s2)CCC(C(C)(C)C)C4)c1 (stereo not drawn) [Example 222, 6-tert-butyl-5,6,7,8-tetrahydrothieno[2,3-b]quinoline-2-carboxylic acid [1-(3-acetylaminophenyl)-2-aminoethyl]amide] and CCOC(=O)Nc1cccc(C(CN)NC(=O)c2cc3cc4c(nc3s2)CCC(C(C)(C)C)C4)c1 (stereo not drawn) [Example 223, (3-{2-amino-1-[(6-tert-butyl-5,6,7,8-tetrahydrothieno[2,3-b]quinoline-2-carbonyl)amino]ethyl}phenyl)carbamic acid ethyl ester] cannot be ordered by IC50: less than 100 nM for the first, less than 100 nM for the second.

Compared with CC(C)(C)C1CCc2nc3sc(C(=O)NC(CN)c4ccc(C(N)=O)cc4)cc3cc2C1 (stereo not drawn) [Example 224, 6-tert-butyl-5,6,7,8-tetrahydrothieno[2,3-b]quinoline-2-carboxylic acid [2-amino-1-(4-carbamoylphenyl)ethyl]amide], CC(C)(C)C1CCc2nc3sc(C(=O)Nc4ccc(O)cc4)cc3cc2C1 (stereo not drawn) [Example 226A, 2-(1-Amino-4-Hydroxyphenyl) carboxamido-6-tert-butyl-5,6,7,8-tetrahydrothieno [2,3-b]quinoline] is higher in IC50: less than 100 nM for the first, 100 to 1000 nM for the second.

First: CC(C)(C)C1CCc2nc3sc(C(=O)N[C@H](CN)c4ccccc4)nc3cc2C1 (stereo partly drawn) [Example 225, 6-tert-butyl-5,6,7,8-tetrahydro-thiazolo[5,4-b]quinoline-2-carboxylic acid [2(S)-amino-1-phenyl-ethyl]-amide]
Second: CC(C)(C)C1CCc2nc3sc(C(=O)Nc4cccc(N)c4)cc3cc2C1 (stereo not drawn) [Example 226D]
The IC50 of the first is lower: less than 100 nM for the first, 100 to 1000 nM for the second.

CC(C)(C)C1CCc2nc3sc(C(=O)Nc4cccnc4)cc3cc2C1 (stereo not drawn) [Example 226B] and CC(C)(C)C1CCc2nc3sc(C(=O)Nc4ccncc4)cc3cc2C1 (stereo not drawn) [Example 226C] fall in the same range of IC50: 100 to 1000 nM for the first, 100 to 1000 nM for the second.

CC(C)(C)C1CCc2nc3sc(C(=O)Nc4ccncc4N)cc3cc2C1 (stereo not drawn) [Example 226E] and CC(C)(C)C1CCc2nc3sc(C(=O)Nc4ccc(O)cc4N)cc3cc2C1 (stereo not drawn) [Example 226G] fall in the same range of IC50: 100 to 1000 nM for the first, 100 to 1000 nM for the second.

CC(C)(C)C1CCc2nc3sc(C(=O)Nc4ccc(N)cc4)cc3cc2C1 (stereo not drawn) [Example 226F] and CC(C)(C)C1CCc2nc3sc(C(=O)Nc4ccc(N)nc4)cc3cc2C1 (stereo not drawn) [Example 226J] fall in the same range of IC50: 100 to 1000 nM for the first, 100 to 1000 nM for the second.

CC(C)(C)C1CCc2nc3sc(C(=O)Nc4ccc(O)c(N)c4)cc3cc2C1 (stereo not drawn) [Example 226H] showed an IC50 of 100 to 1000 nM.
